Reference: US20060069132A1, “Azolecarboxamide herbicides” (priority 2004, published 2006)

How the values were obtained:
barnyardgrass [1] = experiment: Test C flooded paddy test; type: in vivo, Echinochloa crus-galli
How it was run: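 Weeds and wheat were sprayed after emergence, at a height of 2 to 18 cm (1–4 leaves), and paddy barnyardgrass was flooded and treated at two leaves. Assessment took place 12–14 days later in the greenhouse on a 0-to-100 visual control scale. A dash means no result was obtained.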

lambsquarters = experiment: Test B pre-/postemergence herbicide test; type: in vivo, Chenopodium album; settings: for Lambsquarters plant response rating: postemergence
How it was run: (§1)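 Test chemicals in a non-phytotoxic solvent mixture with surfactant were applied preemergence to seeded species and postemergence to plants 2-18 cm tall (1- to 4-leaf stage); rice and barnyardgrass were also tested in a flooded paddy at the 2-leaf stage. Visual rating versus controls after 13-15 days in greenhouse, scale 0 (no effect) to 100 (complete control).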

giant foxtail = experiment: Test B pre-/postemergence herbicide test; type: in vivo, Setaria faberi; settings: for Foxtail, Giant plant response rating: postemergence
How it was run: as §1

[2] = test system: small flower umbrella sedge; experiment: Test B flooded paddy test; type: in vivo, Cyperus difformis; settings: 1000 g ai/ha, scale 0 to 100 (0 no effect, 100 complete control)
How it was run: (§2)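 After treating 2-leaf paddy plants or 2–18 cm postemergence plants (1 to 4 leaves) with formulated chemical, researchers kept them in a greenhouse for 13–15 days. Effects were judged visually versus controls: 0 indicates none, 100 total control.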

rice [3] = experiment: Test B flooded paddy test; type: in vivo, Oryza sativa; settings: 1000 g ai/ha, scale 0 to 100 (0 no effect, 100 complete control)
How it was run: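 Paddy species grown to the 2-leaf stage under flooding; blackgrass sprayed postemergence at 2–18 cm (1- to 4-leaf stage). Plants kept in a greenhouse for 13 to 15 days, then visually rated against controls on 0 (no effect) to 100 (complete control).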

cocklebur = experiment: Test B pre-/postemergence herbicide test; type: in vivo, Xanthium strumarium; settings: for Cocklebur plant response rating: postemergence, scale 0 (no effect) to 100 (complete control)
How it was run: (§3)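 Flooded paddy rice and barnyardgrass were treated at the 2-leaf stage; upland plantings received compound either on sown seed or on 1- to 4-leaf seedlings. All were kept 13–15 days in a greenhouse and scored visually, 0–100, relative to untreated plants.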

ducksalad [4] = experiment: Test C flooded paddy test; type: in vivo, Heteranthera limosa
barnyardgrass [5] = experiment: Test B flooded paddy test; type: in vivo, Echinochloa crus-galli; settings: 1000 g ai/ha, scale 0 to 100 (0 no effect, 100 complete control)
How it was run: as §2

pigweed = experiment: Test B pre-/postemergence herbicide test; type: in vivo, Amaranthus retroflexus; settings: for Pigweed plant response rating: postemergence
How it was run: as §1

wild oat = experiment: Test B postemergence herbicide test; type: in vivo, Avena fatua; settings: postemergence
How it was run: as §2

[6] = test system: smallflower umbrella sedge; experiment: Test C flooded paddy test; type: in vivo, Cyperus difformis
blackgrass = experiment: Test B postemergence herbicide test; type: in vivo, Alopecurus myosuroides; settings: postemergence, visual rating, scale 0 (no effect) to 100 (complete control)
How it was run: as §2

barnyardgrass [7] = experiment: Test B pre-/postemergence herbicide test; type: in vivo, Echinochloa crus-galli; settings: for Barnyardgrass plant response rating: postemergence, scale 0 (no effect) to 100 (complete control)
How it was run: as §3

wheat = experiment: Test B postemergence herbicide test; type: in vivo, Triticum aestivum; design: key to Wheat plant response rating: 0 = no effect, 100 = complete control; settings: postemergence
How it was run: as §2

velvetleaf = experiment: Test B pre-/postemergence herbicide test; type: in vivo, Abutilon theophrasti; settings: for Velvetleaf plant response rating: postemergence
How it was run: as §1

Surinam grass = experiment: Test B pre-/postemergence herbicide test; type: in vivo, Urochloa decumbens; settings: for Surinam Grass plant response rating: postemergence
How it was run: as §1

ducksalad [8] = experiment: Test B flooded paddy test; type: in vivo, Heteranthera limosa; settings: 1000 g ai/ha, scale 0 to 100 (0 no effect, 100 complete control)
How it was run: as §2

morningglory = experiment: Test B pre-/postemergence herbicide test; type: in vivo, Ipomoea coccinea; settings: for Morningglory plant response rating: postemergence
How it was run: as §3

large crabgrass = experiment: Test B pre-/postemergence herbicide test; type: in vivo, Digitaria sanguinalis; settings: for Crabgrass, Large plant response rating: postemergence
How it was run: as §1

rice [9] = experiment: Test C flooded paddy test; type: in vivo, Oryza sativa
How it was run: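 Postemergence sprays applied to plants 2 to 18 cm tall (1- to 4-leaf stage); paddy species grown to 2-leaf stage under flooding. After 12 to 14 days in greenhouse, visual rating versus untreated controls on 0–100 scale (0 no effect, 100 complete control).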

corn = experiment: Test B pre-/postemergence herbicide test; type: in vivo, Zea mays; settings: for Corn plant response rating: postemergence
How it was run: as §1

rice [10] = experiment: Test B pre-/postemergence herbicide test; type: in vivo, Oryza sativa; settings: 0 = no effect, 100 = complete control, preemergence
How it was run: as §1

[11] = 125 g ai/ha, scale 0 to 100 (0 no effect, 100 complete control)
[12] = 250 g ai/ha, scale of 0 to 100, 0 is no effect, 100 is complete control
[13] = 500 g ai/ha, visual rating after 12 to 14 days, scale 0 to 100 (0 no effect, 100 complete control)
[14] = 125 g ai/ha, 0 = no effect, 100 = complete control, preemergence
[15] = 500 g ai/ha, visual rating, 0 = no effect, 100 = complete control, preemergence
[16] = 125 g ai/ha, visual rating, scale 0 (no effect) to 100 (complete control)
[17] = 500 g ai/ha, scale 0 to 100, 0 is no effect, 100 is complete control

CCNC(=O)c1ccc(OC)c(NC(=O)c2cc(C(C)(C)C)nn2CC)n1 [Compound 266]
Barnyardgrass plant response rating (barnyardgrass [1]; 62 g ai/ha, scale 0 to 100 (0 no effect, 100 complete control)): 0 | Barnyardgrass plant response rating (barnyardgrass [1]; [11]): 25 | Barnyardgrass plant response rating (barnyardgrass [1]; [12]): 50 | Plant response rating, Barnyardgrass (barnyardgrass [1]; [13]): 70 | Lambsquarters plant response rating (0 to 100 scale) (lambsquarters; [14]): 100 | Plant response rating, Lambsquarters (lambsquarters; [15]): 100 | Lambsquarters plant response rating (lambsquarters; [16]): 60 | Lambsquarters plant response rating (lambsquarters; [17]): 100 | Foxtail, Giant plant response rating (0 to 100 scale) (giant foxtail; [14]): 80 | Plant response rating, Foxtail, Giant (giant foxtail; [15]): 100 | Foxtail, Giant plant response rating (giant foxtail; [16]): 0 | Foxtail, Giant plant response rating (giant foxtail; [17]): 20 | Sedge, Umbrella plant response rating [2]: 80 | Rice plant response rating (rice [3]): 80 | Cocklebur plant response rating (0 to 100 scale) (cocklebur; [14]): 0 | Plant response rating, Cocklebur (cocklebur; [15]): 10 | Cocklebur plant response rating (cocklebur; 125 g ai/ha, visual rating): 0 | Cocklebur plant response rating (cocklebur; 500 g ai/ha, visual rating): 0 | Ducksalad plant response rating (ducksalad [4]; 62 g ai/ha, scale 0 to 100): 0 | Ducksalad plant response rating (ducksalad [4]; [11]): 15 | Ducksalad plant response rating (ducksalad [4]; [12]): 75 | Plant response rating, Ducksalad (ducksalad [4]; [13]): 95 | Barnyardgrass plant response rating (barnyardgrass [5]): 80 | Pigweed plant response rating (0 to 100 scale) (pigweed; [14]): 100 | Plant response rating, Pigweed (pigweed; [15]): 100 | Pigweed plant response rating (pigweed; [16]): 20 | Pigweed plant response rating (pigweed; [17]): 100 | Oat, Wild plant response rating (wild oat; [16]): 10 | Oat, Wild plant response rating (wild oat; [17]): 20 | Sedge, Umbrella plant response rating ([6]; 62 g ai/ha, scale 0 to 100): 0 | Sedge, Umbrella plant response rating [6, 11]: 20 | Sedge, Umbrella plant response rating [6, 12]: 55 | Plant response rating, Sedge, Umbrella [6, 13]: 80 | Blackgrass plant response rating (blackgrass; 125 g ai/ha): 20 | Blackgrass plant response rating (blackgrass; 500 g ai/ha): 20 | Barnyardgrass plant response rating (0 to 100 scale) (barnyardgrass [7]; [14]): 60 | Plant response rating, Barnyardgrass (barnyardgrass [7]; [15]): 80 | Barnyardgrass plant response rating (barnyardgrass [7]; 125 g ai/ha, visual rating): 0 | Barnyardgrass plant response rating (barnyardgrass [7]; 500 g ai/ha, visual rating): 0 | Wheat plant response rating (wheat; [16]): 20 | Wheat plant response rating (wheat; [17]): 30 | Velvetleaf plant response rating (0 to 100 scale) (velvetleaf; [14]): 20 | Plant response rating, Velvetleaf (velvetleaf; [15]): 100 | Velvetleaf plant response rating (velvetleaf; [16]): 0 | Velvetleaf plant response rating (velvetleaf; [17]): 0 | Surinam Grass plant response rating (0 to 100 scale) (Surinam grass; [14]): 60 | Plant response rating, Surinam Grass (Surinam grass; [15]): 90 | Surinam Grass plant response rating (Surinam grass; [16]): 10 | Surinam Grass plant response rating (Surinam grass; [17]): 20 | Ducksalad plant response rating (ducksalad [8]): 90 | Morningglory plant response rating (0 to 100 scale) (morningglory; [14]): 0 | Plant response rating, Morningglory (morningglory; [15]): 10 | Morningglory plant response rating (morningglory; [16]): 30 | Morningglory plant response rating (morningglory; [17]): 50 | Crabgrass, Large plant response rating (0 to 100 scale) (large crabgrass; [14]): 50 | Plant response rating, Crabgrass, Large (large crabgrass; [15]): 100 | Crabgrass, Large plant response rating (large crabgrass; [16]): 0 | Crabgrass, Large plant response rating (large crabgrass; [17]): 0 | Rice plant response rating (rice [9]; 62 g ai/ha, scale 0 to 100): 0 | Rice plant response rating (rice [9]; [11]): 10 | Rice plant response rating (rice [9]; [12]): 65 | Plant response rating, Rice (rice [9]; [13]): 80 | Corn plant response rating (0 to 100 scale) (corn; [14]): 0 | Plant response rating, Corn (corn; [15]): 90 | Corn plant response rating (corn; [16]): 0 | Corn plant response rating (corn; [17]): 0 | Rice plant response rating (0 to 100 scale) (rice [10]; 125 g ai/ha): 70 | Plant response rating, Rice (rice [10]; 500 g ai/ha, visual rating): 80
